Paper PMC12372887, “Mechanism and cellular actions of the potent AMPK inhibitor BAY-3827” (Science Advances, 2025)

Columns and labels:
Assay in all cases: Kinase panel (140 human kinases)
Format in all cases: biochemical
PRAK = PRAK (Homo sapiens, UniProt Q8IW41)
Summary of the method: (§1)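 Duplicate radiometric filter-binding measurements with [γ-^33P]ATP gave percent residual activity, mean and SD. Tested concentrations: 0.1 μM and, for BAY-3827, 1 μM. ATP set per kinase to 5, 20 or 50 μM, not above Km.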

HIPK2 = HIPK2 (Homo sapiens, UniProt Q9H2X6)
Summary of the method: as §1

p38a MAPK = p38a MAPK (Homo sapiens, UniProt Q16539)
Summary of the method: as §1

PIM2 = PIM2 (Homo sapiens, UniProt Q9P1W9)
Summary of the method: as §1

NUAK1 = molecular target: T1, NUAK1 (Homo sapiens, UniProt O60285)
T1 sequence (O60285 1-661): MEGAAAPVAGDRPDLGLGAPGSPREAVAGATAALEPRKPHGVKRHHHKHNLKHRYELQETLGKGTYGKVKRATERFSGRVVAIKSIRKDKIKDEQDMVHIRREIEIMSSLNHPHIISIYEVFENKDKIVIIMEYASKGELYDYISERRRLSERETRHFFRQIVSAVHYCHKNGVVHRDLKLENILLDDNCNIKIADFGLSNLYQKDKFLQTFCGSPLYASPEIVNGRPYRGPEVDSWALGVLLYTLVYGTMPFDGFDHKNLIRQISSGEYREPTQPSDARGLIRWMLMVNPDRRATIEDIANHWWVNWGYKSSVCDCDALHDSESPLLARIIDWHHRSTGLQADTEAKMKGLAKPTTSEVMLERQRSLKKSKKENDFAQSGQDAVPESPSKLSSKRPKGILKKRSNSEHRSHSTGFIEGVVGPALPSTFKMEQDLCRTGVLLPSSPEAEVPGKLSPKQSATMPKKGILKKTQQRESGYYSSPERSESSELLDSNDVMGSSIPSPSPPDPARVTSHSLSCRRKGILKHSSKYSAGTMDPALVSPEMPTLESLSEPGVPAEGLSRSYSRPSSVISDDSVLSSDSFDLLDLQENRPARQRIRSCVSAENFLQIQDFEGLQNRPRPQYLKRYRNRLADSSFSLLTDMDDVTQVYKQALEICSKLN
Summary of the method: as §1

EF2K = EF2K (Homo sapiens, UniProt O00418)
Summary of the method: as §1

PKBb = PKBb (Homo sapiens, UniProt P31751)
Summary of the method: as §1

AMPK = molecular target: AMPK
Summary of the method: as §1

BRK = BRK (Homo sapiens, UniProt Q13882)
Summary of the method: as §1

PKD1 = PKD1 (Homo sapiens, UniProt Q15139)
Summary of the method: as §1

MARK4 = MARK4 (Homo sapiens, UniProt Q96L34)
Summary of the method: as §1

BTK = BTK (Homo sapiens, UniProt Q06187)
Summary of the method: as §1

MST3 = MST3 (Homo sapiens, UniProt Q9Y6E0)
Summary of the method: as §1

TLK1 = TLK1 (Homo sapiens, UniProt Q9UKI8)
Summary of the method: as §1

PHK = details: 0.1 μM
Summary of the method: as §1

EPH-B1 = EPH-B1 (Homo sapiens, UniProt P54762)
Summary of the method: as §1

MSK1 = MSK1 (Homo sapiens, UniProt O75582)
Summary of the method: as §1

CK1γ2 = CK1γ2 (Homo sapiens, UniProt P78368)
Summary of the method: as §1

MLK1 = MLK1 (Homo sapiens, UniProt P80192)
Summary of the method: as §1

PLK1 = PLK1 (Homo sapiens, UniProt P53350)
Summary of the method: as §1

PRK2 = PRK2 (Homo sapiens, UniProt Q16513)
Summary of the method: as §1

PDK1 = PDK1 (Homo sapiens, UniProt O15530)
Summary of the method: as §1

TAO1 = TAO1 (Homo sapiens, UniProt Q7L7X3)
Summary of the method: as §1

TAK1 = molecular target: T2, TAK1 (Homo sapiens, UniProt O43318)
T2 sequence (O43318 1-303 limits assumed): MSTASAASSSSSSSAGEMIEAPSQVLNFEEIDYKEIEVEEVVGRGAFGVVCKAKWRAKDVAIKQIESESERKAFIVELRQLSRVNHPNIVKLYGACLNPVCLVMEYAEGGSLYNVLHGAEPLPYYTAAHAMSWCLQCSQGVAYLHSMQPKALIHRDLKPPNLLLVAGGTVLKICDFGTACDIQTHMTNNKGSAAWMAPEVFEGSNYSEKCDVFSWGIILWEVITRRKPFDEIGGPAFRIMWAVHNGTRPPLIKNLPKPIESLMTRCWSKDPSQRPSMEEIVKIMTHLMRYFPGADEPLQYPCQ
Summary of the method: as §1

IGF-1R = IGF-1R (Homo sapiens, UniProt P08069)
Summary of the method: as §1

MNK1 = MNK1 (Homo sapiens, UniProt Q9BUB5)
Summary of the method: as §1

TTBK1 = TTBK1 (Homo sapiens, UniProt Q5TCY1)
Summary of the method: as §1

WNK1 = WNK1 (Homo sapiens, UniProt Q9H4A3)
Summary of the method: as §1

[1] = 1 μM, cross-referenced with screen data of ref 37, read-out: activity remaining after treatment

Sequence of PIM2 (Q9P1W9 whole entry): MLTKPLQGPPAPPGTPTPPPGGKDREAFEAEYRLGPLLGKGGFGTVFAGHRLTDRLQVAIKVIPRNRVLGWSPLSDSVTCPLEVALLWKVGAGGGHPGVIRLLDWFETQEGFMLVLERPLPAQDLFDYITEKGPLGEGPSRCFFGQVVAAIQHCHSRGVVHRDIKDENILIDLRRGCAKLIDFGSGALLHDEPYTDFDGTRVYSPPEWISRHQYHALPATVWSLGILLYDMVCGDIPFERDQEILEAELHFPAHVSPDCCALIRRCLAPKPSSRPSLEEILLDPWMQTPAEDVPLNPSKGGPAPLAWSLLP
Sequence of TTBK1 (Q5TCY1 whole entry): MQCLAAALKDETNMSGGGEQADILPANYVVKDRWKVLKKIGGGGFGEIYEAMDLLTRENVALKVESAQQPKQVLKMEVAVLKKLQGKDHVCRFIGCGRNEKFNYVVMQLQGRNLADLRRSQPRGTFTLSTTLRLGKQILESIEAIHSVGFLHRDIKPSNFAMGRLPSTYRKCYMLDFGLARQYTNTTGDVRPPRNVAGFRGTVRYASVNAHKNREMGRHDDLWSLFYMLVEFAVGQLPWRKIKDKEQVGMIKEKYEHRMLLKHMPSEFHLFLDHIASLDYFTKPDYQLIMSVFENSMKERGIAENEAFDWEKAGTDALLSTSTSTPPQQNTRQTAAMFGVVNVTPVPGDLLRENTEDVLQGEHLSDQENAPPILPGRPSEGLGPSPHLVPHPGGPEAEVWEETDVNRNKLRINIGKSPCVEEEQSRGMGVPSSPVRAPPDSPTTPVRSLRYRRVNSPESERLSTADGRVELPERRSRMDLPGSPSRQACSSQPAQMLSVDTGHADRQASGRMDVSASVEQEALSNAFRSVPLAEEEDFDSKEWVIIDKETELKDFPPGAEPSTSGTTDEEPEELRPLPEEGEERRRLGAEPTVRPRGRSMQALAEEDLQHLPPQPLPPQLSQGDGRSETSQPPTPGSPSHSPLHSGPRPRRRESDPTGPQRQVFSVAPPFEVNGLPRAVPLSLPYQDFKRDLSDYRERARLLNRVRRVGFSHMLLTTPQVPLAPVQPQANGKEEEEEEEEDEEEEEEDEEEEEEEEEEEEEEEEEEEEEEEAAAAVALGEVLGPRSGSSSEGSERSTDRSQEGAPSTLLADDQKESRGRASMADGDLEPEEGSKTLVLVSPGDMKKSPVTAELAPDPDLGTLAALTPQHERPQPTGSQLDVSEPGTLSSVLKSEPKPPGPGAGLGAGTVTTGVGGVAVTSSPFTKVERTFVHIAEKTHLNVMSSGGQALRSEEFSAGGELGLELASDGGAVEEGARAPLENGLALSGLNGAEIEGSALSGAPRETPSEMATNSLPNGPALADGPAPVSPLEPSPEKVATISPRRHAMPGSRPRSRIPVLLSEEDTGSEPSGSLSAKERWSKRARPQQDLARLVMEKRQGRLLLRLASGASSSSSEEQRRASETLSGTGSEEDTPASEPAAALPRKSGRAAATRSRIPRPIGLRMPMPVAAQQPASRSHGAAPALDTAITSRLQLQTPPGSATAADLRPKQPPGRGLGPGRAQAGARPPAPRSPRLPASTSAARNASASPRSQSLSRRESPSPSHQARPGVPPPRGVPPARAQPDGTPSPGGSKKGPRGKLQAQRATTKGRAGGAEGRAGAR
Sequence of MSK1 (O75582 whole entry): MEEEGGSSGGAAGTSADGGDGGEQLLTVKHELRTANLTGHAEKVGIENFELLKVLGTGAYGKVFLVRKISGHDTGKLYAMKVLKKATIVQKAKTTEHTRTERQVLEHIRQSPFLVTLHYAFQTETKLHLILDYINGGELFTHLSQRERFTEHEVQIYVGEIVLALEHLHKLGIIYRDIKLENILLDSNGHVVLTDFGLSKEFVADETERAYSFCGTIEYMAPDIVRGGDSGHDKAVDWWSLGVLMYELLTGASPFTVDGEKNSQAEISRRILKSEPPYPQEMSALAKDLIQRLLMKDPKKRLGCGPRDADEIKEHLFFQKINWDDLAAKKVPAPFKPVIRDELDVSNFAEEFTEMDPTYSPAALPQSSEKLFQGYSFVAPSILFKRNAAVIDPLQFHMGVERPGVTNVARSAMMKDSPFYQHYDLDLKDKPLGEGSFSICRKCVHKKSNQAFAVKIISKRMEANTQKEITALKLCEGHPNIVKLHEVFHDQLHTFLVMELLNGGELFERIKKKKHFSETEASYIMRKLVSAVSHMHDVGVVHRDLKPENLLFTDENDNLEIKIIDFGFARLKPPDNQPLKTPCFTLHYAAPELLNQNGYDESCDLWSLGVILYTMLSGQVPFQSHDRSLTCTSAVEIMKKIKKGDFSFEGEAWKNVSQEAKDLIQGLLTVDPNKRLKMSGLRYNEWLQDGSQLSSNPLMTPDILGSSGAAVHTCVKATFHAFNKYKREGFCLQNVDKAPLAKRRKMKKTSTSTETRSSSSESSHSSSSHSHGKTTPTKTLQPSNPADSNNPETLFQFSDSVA
Sequence of WNK1 (Q9H4A3 whole entry): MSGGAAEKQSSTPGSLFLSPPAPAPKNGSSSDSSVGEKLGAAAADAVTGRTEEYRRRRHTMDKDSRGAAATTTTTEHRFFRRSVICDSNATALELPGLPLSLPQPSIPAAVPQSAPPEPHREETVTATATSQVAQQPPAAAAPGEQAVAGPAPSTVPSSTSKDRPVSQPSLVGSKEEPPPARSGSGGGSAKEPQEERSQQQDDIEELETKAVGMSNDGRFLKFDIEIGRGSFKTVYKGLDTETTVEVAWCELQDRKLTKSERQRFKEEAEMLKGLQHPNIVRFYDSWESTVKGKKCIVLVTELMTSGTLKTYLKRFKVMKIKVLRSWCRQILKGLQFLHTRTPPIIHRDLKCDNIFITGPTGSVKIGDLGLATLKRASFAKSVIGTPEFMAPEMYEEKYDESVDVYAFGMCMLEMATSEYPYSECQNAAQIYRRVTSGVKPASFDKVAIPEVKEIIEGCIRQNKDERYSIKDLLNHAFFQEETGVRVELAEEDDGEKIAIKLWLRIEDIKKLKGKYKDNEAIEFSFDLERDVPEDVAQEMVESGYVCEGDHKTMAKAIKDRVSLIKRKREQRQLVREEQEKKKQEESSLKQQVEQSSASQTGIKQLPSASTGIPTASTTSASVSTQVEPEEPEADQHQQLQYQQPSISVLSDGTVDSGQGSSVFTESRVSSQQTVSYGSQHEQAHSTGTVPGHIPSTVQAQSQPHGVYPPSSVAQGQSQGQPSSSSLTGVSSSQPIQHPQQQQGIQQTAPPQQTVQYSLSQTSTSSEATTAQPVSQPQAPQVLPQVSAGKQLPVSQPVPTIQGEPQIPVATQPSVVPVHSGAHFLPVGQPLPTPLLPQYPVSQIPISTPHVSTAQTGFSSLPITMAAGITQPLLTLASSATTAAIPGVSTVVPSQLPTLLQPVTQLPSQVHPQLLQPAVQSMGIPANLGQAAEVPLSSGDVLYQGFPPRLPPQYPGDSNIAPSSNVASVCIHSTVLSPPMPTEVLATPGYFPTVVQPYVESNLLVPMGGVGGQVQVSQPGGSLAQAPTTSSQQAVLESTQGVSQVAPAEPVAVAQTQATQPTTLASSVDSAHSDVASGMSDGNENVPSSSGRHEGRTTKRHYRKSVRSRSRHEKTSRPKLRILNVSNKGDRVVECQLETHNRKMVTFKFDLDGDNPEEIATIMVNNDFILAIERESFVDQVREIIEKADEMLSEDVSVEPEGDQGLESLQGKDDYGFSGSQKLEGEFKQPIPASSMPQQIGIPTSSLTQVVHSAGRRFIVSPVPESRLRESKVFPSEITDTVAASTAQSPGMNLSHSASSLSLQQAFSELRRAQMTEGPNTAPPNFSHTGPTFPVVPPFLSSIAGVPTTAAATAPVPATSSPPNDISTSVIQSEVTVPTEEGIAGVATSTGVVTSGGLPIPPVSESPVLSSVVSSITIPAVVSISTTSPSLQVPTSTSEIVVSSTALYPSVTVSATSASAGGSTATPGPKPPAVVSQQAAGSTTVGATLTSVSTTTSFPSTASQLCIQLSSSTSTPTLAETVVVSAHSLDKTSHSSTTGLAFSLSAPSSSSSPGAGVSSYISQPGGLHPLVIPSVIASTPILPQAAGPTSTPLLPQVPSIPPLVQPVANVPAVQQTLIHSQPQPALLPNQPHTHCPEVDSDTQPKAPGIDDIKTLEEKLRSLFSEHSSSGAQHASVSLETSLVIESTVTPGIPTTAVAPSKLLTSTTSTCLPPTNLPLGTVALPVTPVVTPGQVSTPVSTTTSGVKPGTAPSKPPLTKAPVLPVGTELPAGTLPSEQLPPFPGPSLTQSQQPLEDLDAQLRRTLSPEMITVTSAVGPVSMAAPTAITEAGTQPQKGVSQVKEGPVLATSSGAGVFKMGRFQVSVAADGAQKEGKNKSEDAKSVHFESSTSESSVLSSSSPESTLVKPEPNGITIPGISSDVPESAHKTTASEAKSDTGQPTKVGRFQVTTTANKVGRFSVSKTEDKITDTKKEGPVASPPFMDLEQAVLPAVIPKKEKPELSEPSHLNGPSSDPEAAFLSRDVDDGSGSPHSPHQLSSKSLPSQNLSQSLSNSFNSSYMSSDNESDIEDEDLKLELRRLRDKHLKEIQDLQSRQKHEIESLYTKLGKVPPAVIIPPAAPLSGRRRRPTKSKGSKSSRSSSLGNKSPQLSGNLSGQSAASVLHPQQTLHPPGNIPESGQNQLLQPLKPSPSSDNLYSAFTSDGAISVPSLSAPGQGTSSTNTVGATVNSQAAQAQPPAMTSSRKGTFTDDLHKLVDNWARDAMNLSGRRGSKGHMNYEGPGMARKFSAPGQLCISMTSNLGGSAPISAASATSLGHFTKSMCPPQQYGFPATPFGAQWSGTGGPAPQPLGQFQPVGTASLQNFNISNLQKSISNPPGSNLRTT

CC1=C(C#N)C(c2ccc3c(c2)c(NC(=O)c2ccccc2C)nn3C)C(C#N)=C(C)N1 [BAY-974, N-[5-(3,5-dicyano-2,6-dimethyl-1,4-dihydropyridin-4-yl)-1-methylindazol-3-yl]-2-methylbenzamide]
remaining activity at 0.1 µM (PRAK): 107%
remaining activity at 0.1 µM (HIPK2): 108%
remaining activity at 0.1 µM (p38a MAPK): 108%
remaining activity at 0.1 µM (PIM2): 113%
remaining activity at 0.1 µM (NUAK1): 60%
remaining activity at 0.1 µM (EF2K): 119%
remaining activity at 0.1 µM (PKBb): 99%
Kinase activity remaining (%) (AMPK; 0.1 μM): 98%
inhibition of kinase (AMPK; 0.1 μM): almost no effect
remaining activity at 0.1 µM (BRK): 70%
remaining activity at 0.1 µM (PKD1): 84%
remaining activity at 0.1 µM (MARK4): 96%
remaining activity at 0.1 µM (BTK): 94%
remaining activity at 0.1 µM (MST3): 89%
remaining activity at 0.1 µM (TLK1): 100%
Kinase activity remaining (%) (PHK): 120%
remaining activity at 0.1 µM (EPH-B1): 107%
remaining activity at 0.1 µM (MSK1): 100%
remaining activity at 0.1 µM (CK1γ2): 112%
remaining activity at 0.1 µM (MLK1): 90%
remaining activity at 0.1 µM (PLK1): 105%
remaining activity at 0.1 µM (PRK2): 83%
remaining activity at 0.1 µM (PDK1): 85%
remaining activity at 0.1 µM (TAO1): 88%
remaining activity at 0.1 µM (TAK1): 93%
remaining activity at 0.1 µM (IGF-1R): 147%
remaining activity at 0.1 µM (MNK1): 100%
remaining activity at 0.1 µM (TTBK1): 104%
remaining activity at 0.1 µM (WNK1): 117%

CCc1ccccc1C(=O)Nc1n[nH]c2c(C)c(F)c(C3C(C#N)=C(C)N(C)C(C)=C3C#N)cc12 [BAY-3827, N-[5-(3,5-dicyano-1,2,6-trimethyl-4H-pyridin-4-yl)-6-fluoro-7-methyl-1H-indazol-3-yl]-2-ethylbenzamide]
remaining activity at 0.1 µM (PRAK): 101%
remaining activity at 0.1 µM (HIPK2): 121%
remaining activity at 0.1 µM (p38a MAPK): 97%
remaining activity at 0.1 µM (PIM2): 112%
remaining activity at 1 µM (PIM2; [1]): ≥ 99%
remaining activity at 0.1 µM (NUAK1): 68%
remaining activity at 1 µM (NUAK1; [1]): ≤ 50%
remaining activity at 0.1 µM (EF2K): 91%
remaining activity at 0.1 µM (PKBb): 93%
inhibition of kinase (AMPK; 0.1 μM): > 90%
activity remaining after treatment (AMPK; 1 μM, cross-referenced with screen data of ref 37): ≤ 50%
remaining activity at 0.1 µM (BRK): 83%
remaining activity at 0.1 µM (PKD1): 100%
remaining activity at 0.1 µM (MARK4): 98%
remaining activity at 0.1 µM (BTK): 85%
remaining activity at 0.1 µM (MST3): ≤ 50%
remaining activity at 0.1 µM (TLK1): 118%
inhibition of kinase (PHK): 80 to 85%
remaining activity at 0.1 µM (EPH-B1): 91%
remaining activity at 0.1 µM (MSK1): 56%
remaining activity at 1 µM (MSK1; [1]): ≤ 50%
remaining activity at 0.1 µM (CK1γ2): 95%
remaining activity at 0.1 µM (MLK1): 89%
remaining activity at 0.1 µM (PLK1): 97%
remaining activity at 0.1 µM (PRK2): 88%
remaining activity at 0.1 µM (PDK1): 83%
remaining activity at 0.1 µM (TAO1): 94%
remaining activity at 0.1 µM (TAK1): 118%
remaining activity at 1 µM (TAK1; [1]): ≥ 99%
remaining activity at 0.1 µM (IGF-1R): 67%
remaining activity at 0.1 µM (MNK1): 126%
remaining activity at 0.1 µM (TTBK1): 101%
remaining activity at 1 µM (TTBK1; [1]): ≥ 99%
remaining activity at 0.1 µM (WNK1): 101%
remaining activity at 1 µM (WNK1; [1]): ≥ 99%
